The values that follow come from PubChem BioAssay (NCI).

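1) Cells in 96-well plates. 2) Compound, 48 h, 5 concentrations. 3) Linear interpolation between surrounding doses. 4) Unreached endpoint = highest concentration. Abbreviation: GI50, concentration required for 50% inhibition of growth. At the TGI there is no net growth.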

Among the test systems are RXF-631 renal; DMS 273 small cell lung; DLD-1 colon; SNB-78 CNS; M19-MEL melanoma; DMS 114 small cell lung; KM20L2 colon; XF 498 CNS; MDA-N.
Assay in all cases: NCI tumour cell line growth inhibition, 48 h

On to `Cc1ccccc1NC(=O)C(=O)C(c1cnc2ccc([N+](=O)[O-])cc2n1)[N+](=O)[O-]` (stereo not drawn), for which the TGI in the assay with RXF-631 renal, with DMS 273 small cell lung, with DLD-1 colon, in the assay on SNB-78 CNS, with M19-MEL melanoma and with DMS 114 small cell lung was > 100 µM each time. Further, the TGI in the assay on KM20L2 colon is > 100 µM.

Consider `CCC(C)OC(=O)C1C2CCC(O2)C1C(=O)O` (stereo not drawn), for which the TGI in the assay with DMS 273 small cell lung was > 60.1 µM; in the assay with DLD-1 colon it was > 77.7 µM; in the assay on SNB-78 CNS, > 100 µM; in the assay with M19-MEL melanoma, > 100 µM; in the assay with DMS 114 small cell lung, > 56.4 µM; with KM20L2 colon, > 63.5 µM.

As to `N=C1N(c2ccccc2)C(=O)C23CCCC2C13N1CCOCC1` (stereo not drawn), the TGI in the assay with RXF-631 renal, in the assay on DMS 273 small cell lung, in the assay on DLD-1 colon, in the assay on SNB-78 CNS, in the assay on M19-MEL melanoma and in the assay on DMS 114 small cell lung was > 100 µM throughout. In addition, the TGI with KM20L2 colon was > 100 µM.

Consider `CN=C1Nc2ccc(Cl)cc2C(c2ccccc2)=NN1C`, for which the TGI in the assay on RXF-631 renal, with DMS 273 small cell lung, in the assay on DLD-1 colon, with SNB-78 CNS, with M19-MEL melanoma and in the assay on DMS 114 small cell lung was > 100 µM in each case. Besides, the TGI in the assay with KM20L2 colon and in the assay on XF 498 CNS was > 100 µM each time.

For `COC(=O)C1=CN=C(C(=O)OC)NN1`, the TGI in the assay on RXF-631 renal, in the assay with DLD-1 colon, in the assay with M19-MEL melanoma, in the assay with DMS 114 small cell lung, in the assay on KM20L2 colon and with XF 498 CNS was > 100 µM in each case.

For `CN(C)C(=O)/N=c1\ss/c(=N\C(=S)N(C)C)n1-c1ccccc1`, the TGI in the assay on RXF-631 renal, in the assay with DMS 273 small cell lung, in the assay on DLD-1 colon, in the assay with SNB-78 CNS, in the assay with M19-MEL melanoma and in the assay on KM20L2 colon was > 100 µM throughout. In addition, in the assay on XF 498 CNS, the TGI was > 85.4 µM. For the same compound, the values for the GI50 with DMS 273 small cell lung and with DMS 114 small cell lung were 30 µM and 0.0334 µM, respectively.

For the compound `COc1cc2nc(Sc3c([N+](=O)[O-])ncn3C)[nH]c2cc1OC`, the TGI in the assay with DLD-1 colon was 46 µM; in the assay with SNB-78 CNS it was > 100 µM; in the assay on M19-MEL melanoma, > 100 µM; in the assay on DMS 114 small cell lung, 25.8 µM; in the assay on KM20L2 colon it was > 100 µM; in the assay with XF 498 CNS it was 49.2 µM.

In the case of `O=C1N=C(c2ccccc2)OC1C(=O)c1ccccc1` (stereo not drawn), in the assay with MDA-N, the TGI was > 100 µM.

As for `NC(CNO)C(=O)O` (stereo not drawn), the TGI in the assay with MDA-N was > 100 µM.

For `O=C(O)c1ccc(O)c(N=Nc2cc(S(=O)(=O)O)c3ccccc3c2O)c1`, the TGI in the assay with RXF-631 renal, in the assay on DMS 273 small cell lung, in the assay with DLD-1 colon, in the assay with SNB-78 CNS, with M19-MEL melanoma and in the assay on DMS 114 small cell lung was > 100 µM in each case. In the assay with KM20L2 colon, the TGI was > 100 µM.

In the assay with MDA-N, `N#CC(=S)Nc1ccc(Cl)c(Cl)c1` returned a TGI of 88.3 µM.

For the compound `Oc1ccc(CNCc2ccccc2)c2cccnc12`, the TGI in the assay on MDA-N was > 100 µM.

As to `NC(=O)N/N=C(\C(=O)C(=O)Nc1ccc(Cl)c(C(F)(F)F)c1)c1nc2ccc(C(=O)c3ccccc3)cc2[nH]c1=O`, the TGI with DMS 273 small cell lung is > 100 µM; in the assay with SNB-78 CNS, > 100 µM; in the assay on M19-MEL melanoma, > 100 µM; in the assay on DMS 114 small cell lung, > 100 µM; in the assay with KM20L2 colon, > 100 µM; in the assay on XF 498 CNS, 64.1 µM.

Regarding `O=C1C(=O)N(C(=O)c2ccc(Cl)c(Cl)c2)c2ccc(Cl)cc21`, the TGI with DMS 273 small cell lung is > 100 µM; in the assay on DLD-1 colon it was > 100 µM; in the assay on SNB-78 CNS, > 100 µM; with M19-MEL melanoma, 39.9 µM; in the assay on DMS 114 small cell lung, 66 µM.

Consider `O=C(O)C1NCCc2c1[nH]c1ccccc21` (stereo not drawn), for which the TGI in the assay with RXF-631 renal is > 100 µM; in the assay on DMS 273 small cell lung, > 100 µM; with DLD-1 colon it was > 100 µM; in the assay with SNB-78 CNS, > 100 µM; in the assay on MDA-N, > 10 µM; with M19-MEL melanoma it was > 100 µM. Also, the TGI with DMS 114 small cell lung and in the assay with KM20L2 colon was > 100 µM in each case.

Consider `Nc1ncnc(NC2C=C(CO)C(O)C2O)c1[N+](=O)[O-]` (stereo not drawn), for which the TGI with RXF-631 renal, in the assay on DMS 273 small cell lung, with DLD-1 colon, with SNB-78 CNS, in the assay with M19-MEL melanoma and in the assay with DMS 114 small cell lung was > 100 µM each time. Besides, the TGI with KM20L2 colon is > 100 µM.

On to `CC(C)NCC(O)COC(=O)c1cccs1` (stereo not drawn), for which the TGI in the assay with RXF-631 renal, with DMS 273 small cell lung, with DLD-1 colon, in the assay with SNB-78 CNS, in the assay with M19-MEL melanoma and in the assay with KM20L2 colon was > 100 µM each time. Moreover, in the assay on XF 498 CNS, the TGI is > 100 µM.

In the case of `COC(=O)/C(C#N)=C1\CCC(O)N1C` (stereo not drawn), the TGI with DLD-1 colon, with SNB-78 CNS, in the assay with DMS 114 small cell lung, in the assay on KM20L2 colon and with XF 498 CNS was > 100 µM throughout.

Consider `Cc1cc(C)c(O)c(Cc2cccc(Cc3cc(C)cc(C)c3O)c2O)c1`, for which, in the assay with MDA-N, the TGI is > 100 µM.

As for `COC(=O)C(C(=O)C(=O)Nc1ccccc1C(C)=O)c1nc2ccc(Cl)cc2[nH]c1=O` (stereo not drawn), the TGI in the assay on RXF-631 renal, in the assay with DLD-1 colon, in the assay on SNB-78 CNS, with M19-MEL melanoma, with DMS 114 small cell lung and in the assay with KM20L2 colon was > 100 µM throughout.

Consider `Cc1oc2c(C)c(O)c3c(c2c1C1(C)OCCO1)C(=O)C=C(Cl)C3=O`, for which the TGI with RXF-631 renal, with DMS 273 small cell lung, in the assay with SNB-78 CNS, with M19-MEL melanoma, in the assay on KM20L2 colon and in the assay on XF 498 CNS was > 100 µM throughout.

In the case of `O=c1cc(-c2ccc(Cl)cc2)[nH]c2ncccc12`, in the assay on MDA-N, the GI50 is 8.26 µM and the TGI was determined as 26.1 µM.
